From patent publication US12377037B2, “Cleavable comonomer strategy for accelerating removal of gel nail polish” (MASSACHUSETTS INSTITUTE OF TECHNOLOGY, priority 2022, dated 2025)

Tests used:
Type in all cases: physicochemical
[1] = Solubility study of DOT derivatives in nail polish (supersaturated solution, quantitative 1H NMR); conditions: for Solubility (wt % in polish): nail polish (clear topcoat), supersaturated solution filtered through 0.25 μm PTFE, quantitative 1H NMR; for Notes: solubility / appearance in nail polish solution: standard nail polish solution
Description: The solubility of various DOT derivatives in nail polish was observed by generating a supersaturated solution of the compounds in nail polish (clear topcoat). The supersaturated solution was filtered through a 0.25 μm PTFE syringe filter, and a known mass of an internal NMR standard (bis-1,4-trimethylsilylbenzene) was added. The amount of the compound that was dissolved in the nail polish was then determined by quantitative ^1H NMR. The solubility was taken as the amount of the weight fraction of the compound dissolved in nail polish in a supersaturated solution.

[2] = Disappearance of visible absorbance (yellowness) of polymer compositions under UV irradiation, image analysis in ImageJ; conditions: upon polymerization
Description: In some embodiments, the polymer composition is prepared by polymerizing the first, second, and third monomers. In certain embodiments, the third monomer is added subsequently to a mixture of at least the first and second monomers. When added to the polymer composition, the third monomer may contribute a visible absorbance that obscures the intended color of the polymer. […] In some embodiments, UV irradiation initiates the polymerization process. The disappearance of the visible absorbance can be measured by image analysis in ImageJ. […] As shown, the visible absorbance of polymer compositions with concentrations of 1, 2, and 5 wt % 2SiPr-DOT disappears after 20 minutes of UV irradiation. Compositions with lower concentrations show a disappearance of viable absorbance between about 5 and about 10 minutes of UV irradiation.

[3] = Bench stability noted for DOT derivatives

Row | SMILES | Solubility (wt % in polish) [1] [wt % in polish] | Solubility in nail polish, comparison in words ([1]; nail polish, versus DOT or 2S^sBu-DOT) | Notes: solubility / appearance in nail polish solution [1] | Colour contributed to the polymer (visible absorbance) [2] | Notes: bench stability [3]
1 | CC(C)Sc1ccc2c(c1)-c1ccccc1COC2=S [2S^iPr-DOT, 2-(isopropylthio)dibenzo[c,e]oxepine-5(7H)-thione] | 7.64 | superior solubility in nail polish over DOT or 2S^sBu-DOT | Yellow crystalline solid; shows superior solubility in standard nail polish solution | does not contribute a permanent color | –
2 | CCC(C)Sc1ccc2c(c1)-c1ccccc1COC2=S (centres unmarked) [2S^sBu-DOT] | 2.00 | – | cloudy and inhomogeneous in nail polish solution | – | not bench stable
3 | S=C1OCc2ccccc2-c2ccccc21 [DOT, dibenzo[c,e]oxepine-5(7H)-thione, reference compound] | 2.23 | – | – | – | –
